Seven molecules from US20260207535A1, “CRIBLAGE INHIBITEURS USP8” (COMMISSARIAT A L'ENERGIE ATOMIQUE ET AUX ENERGIES …, priority 2022, published 2026) can be followed below.

Where two headings read alike, the source gives them in different places. Bounds are passed on as bounds.

In data set [1] the target is T1, Full length USP8 (USP8FL) (Homo sapiens, UniProt P40818).
T1 construct: purchased BostonBiochem E-520
T1 sequence (P40818 1-1118): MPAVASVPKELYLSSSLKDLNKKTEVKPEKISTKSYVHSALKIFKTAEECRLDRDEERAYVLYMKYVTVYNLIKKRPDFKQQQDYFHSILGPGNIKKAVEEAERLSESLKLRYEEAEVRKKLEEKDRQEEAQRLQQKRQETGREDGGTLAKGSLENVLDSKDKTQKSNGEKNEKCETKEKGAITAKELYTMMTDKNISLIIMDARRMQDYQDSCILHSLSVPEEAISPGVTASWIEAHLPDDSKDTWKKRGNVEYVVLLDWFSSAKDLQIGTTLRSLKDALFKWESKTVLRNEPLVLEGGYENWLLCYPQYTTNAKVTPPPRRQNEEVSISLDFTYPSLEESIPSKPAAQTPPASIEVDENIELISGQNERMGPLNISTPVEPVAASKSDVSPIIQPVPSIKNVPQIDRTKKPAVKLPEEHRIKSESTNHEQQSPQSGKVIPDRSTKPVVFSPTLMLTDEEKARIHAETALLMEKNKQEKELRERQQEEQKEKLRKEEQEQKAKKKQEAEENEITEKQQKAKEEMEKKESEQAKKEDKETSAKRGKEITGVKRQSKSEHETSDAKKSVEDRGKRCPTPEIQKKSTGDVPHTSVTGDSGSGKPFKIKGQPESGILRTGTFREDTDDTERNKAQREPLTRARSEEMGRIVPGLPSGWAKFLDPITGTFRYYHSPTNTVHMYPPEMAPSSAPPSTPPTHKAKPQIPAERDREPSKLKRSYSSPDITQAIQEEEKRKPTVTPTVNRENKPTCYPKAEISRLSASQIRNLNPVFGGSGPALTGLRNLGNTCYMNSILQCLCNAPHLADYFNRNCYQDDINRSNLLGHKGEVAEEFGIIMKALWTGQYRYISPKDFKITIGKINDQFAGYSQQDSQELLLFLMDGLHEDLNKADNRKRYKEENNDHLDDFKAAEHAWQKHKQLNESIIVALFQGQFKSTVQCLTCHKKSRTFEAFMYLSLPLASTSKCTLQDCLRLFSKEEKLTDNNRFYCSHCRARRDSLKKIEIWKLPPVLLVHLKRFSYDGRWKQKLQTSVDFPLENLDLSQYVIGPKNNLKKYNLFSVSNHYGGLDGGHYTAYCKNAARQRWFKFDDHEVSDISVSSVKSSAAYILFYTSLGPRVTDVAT
Kind of data set: USP8FL (full length USP8) enzymatic inhibition, Ub-Rhodamine 110 hydrolysis in L-cysteine buffer. It counts as biochemical. The settings on record: USP8 FL 75 nM, Ub-Rho 0.1 μM, L-cysteine buffer. On the procedure: USP8 FL (USP8 Full Length) was incubated at a concentration of 75 nM in the presence of Ub-Rho (UBIQUIGENT ref. 60-0117-050) at a final concentration of 0.1 μM, in conditions ensuring linearity of enzyme activity throughout the assay in a specific buffer. Compounds were added to the reaction mix at different doses just before the substrate. The enzymatic reaction kinetics were monitored by measuring fluorescence elicited by the hydrolysis of Ub-Rho over 30 min.
In this setup, an in-house purified catalytic domain of USP8 (USP8CD) was used at a concentration of 80 nM in the presence of the artificial substrate Ubiquitin-Rhodamine 110 (Ub-Rho) (ref: 60-0117-050 Ubiquigent) at a final concentration of 0.1 μM, in conditions ensuring linearity of enzyme activity throughout the assay incubation time. Enzymatic assay was performed in a Tris HCl buffer (40 mM Tris HCl pH 7.4, Ovalbumine 0.5 mg/ml, Cysteine HCl 5.5 mM). Compounds to be tested were added to the reaction mix and incubated with enzyme for 20 min, before the substrate. The enzymatic reaction kinetics were monitored by measuring fluorescence elicited by the hydrolysis of the peptidyl Ub-Rho over 30 minutes. The negative control was the solvent DMSO at 1%.
Full length USP8 (USPBFL) (BostonBiochem ref. E-520) were used at a concentration of 75 nM in the presence of a ubiquitin substrate, i.e., the Ub-Rhodamine 110 (Ub-Rho) (Ubiquigent ref. 60-0117-050) at a final concentration of 0.1 μM. Enzymatic assays were performed as described for USP8-CD except that USP-FL was used at a concentration of 75 nM. The compounds were used at a final concentration of 0.1, 1, 5, 10, 50 and 100 μM in DMSO 0.5%. The USP8 catalytic activity was monitored both before adding the substrate (TO) and after twenty minutes of incubation at room temperature (Final Time TF). The enzymatic reaction kinetics were monitored by measuring fluorescence elicited by the hydrolysis of the Ub-Rho bound over 30 minutes.

The next data set has as its system AtT-20 pituitary cells. Kind of data set: Inhibition of ACTH secretion in pituitary cells (ACTH EIA on supernatant). It counts as cell-based, mouse. On the procedure:
ACTH release (percent comparison to DMSO control). Briefly, 12,500 AtT-20 cells per well were seeded in a 96-well plate. After 24 hours exposure, cells were treated with each compound at the indicated final concentration, or with DMSO alone (control condition compound solvent) or with corticotropin releasing factor (indicated CRF) at 100 nM. After a 24-hour treatment, cell supernatants were collected and stored at −80° C., prior to quantification of ACTH concentration using ACTH chemiluminescent EIA kit (Phoenix Pharmaceuticals, Inc.). Determination of ACTH concentrations was based on the best-fitting ACTH standard curve and P values were calculated using one-way ANOVA, using Prism 9 software (GraphPad Software, Inc.) ns (P=0.12). **P<0.002. ***P<0.001. All compounds were tested in technical triplicates. One representative experiment out of three is presented.
FIG. 4: illustrates a decrease of ACTH secretion by AtT-20 cells after 24-hour treatment of halogenated salicylanilides. 12,500 AtT-20 cells per well were seeded in a 96-well plate. […] After a 24-hour treatment, cell supernatants were collected and stored at −80° C., prior to quantification of ACTH concentration using ACTH chemiluminescent EIA kit (Phoenix Pharmaceuticals, Inc.). Determination of ACTH concentrations was based on the best-fitting ACTH standard curve and P values were calculated by ordinary one-way ANOVA using Prism 6 software (GraphPad Software, Inc), ns (not significant), **** P<0.0001. Compounds were tested in technical triplicates.
12,500 AtT-20 cells per well were seeded in a 96-well plate. After 24 hours, cells were treated with compounds (corresponding chemical formula are indicated in Table 1) at 25 μM final concentration, or with DMSO alone (compound solvent). After a 24-hour treatment, cell supernatants were collected and stored at −80° C., prior to quantification of ACTH concentration using ACTH chemiluminescent EIA kit (Phoenix Pharmaceuticals, Inc.). Determination of ACTH concentrations was based on the best-fitting ACTH standard curve and P values were calculated by ordinary one-way ANOVA using Prism 6 software (GraphPad Software, Inc), ns (not significant), *P<0.05, ***P<0,0001. Compounds were tested in technical triplicates.
Mouse AtT-20 pituitary cell line were used as a powerful and well-characterized model to monitor ACTH secretion using an enzyme immunoassay (EIA) kit.
Mouse AtT-20 cells were obtained from the American Type Culture Collection and maintained on DMEM containing 10% fetal bovine serum, 100 μg/mL streptomycin and 100 U/mL penicillin at 37° C. with 5% CO2 after recovery from long-term storage on liquid nitrogen-vapor phase.
The ACTH secretion levels of AtT-20 cell culture was monitored on the supernatant of AtT-20 cells treated or not by increasing doses of compounds belonging to the family of halogenated salicylanilides chemicals.
1.25×10^4 AtT20 cells were seeded on polylysine-coated 96-well culture vessels on 150 μL of complete medium. After 24 hours, cells were treated with stock compounds to a final DMSO concentration of 0.5%. After 24 hours of treatment, cell culture supernatant was collected, cleared for 10 min at 1000×g at 4° C., diluted or not in assay buffer (Phoenix Peptide ACTH EIA EK-001-21) and frozen at −80° C. for subsequent processing according to the instructions of the kit's manufacturer.

The subject of another data set is AtT-20 cells. Kind of data set: Cytotoxicity towards AtT-20 cells (PrestoBlue viability assay). The settings on record: 25 μM, 24-hour exposure.
The mark [2] stands for this setting: read-out: USP8FL inhbition IC50 [μM] (CI: Confidence Interval).
Where [3] appears, read: Mus musculus, AtT20, 25 μM, 24-hour treatment, AtT-20 supernatant, read-out: ACTH secretion % of control (DMSO) at 25 μM.

Source text for AtT-20 cells: The AtT-20 cells viability was monitored in the conditions used to follow ACTH secretion. The viability of treated cells was concomitantly evaluated using a Cell Viability Reagent (monitoring of the cells' reducing capacity) (PrestoBlue® assay, Molecular Probes) with the aim to determine non-toxic doses of cell treatment.
After the collection of the supernatant sample for the ACTH assay in the previous step, cells were supplemented with the PrestoBlue™ cell viability reagent (Invitrogen™ A13261) at 10% final volume, and re-incubated at 37° C. for 30 minutes. Fluorescence was then read with a FLUOstar OPTIMA microplate reader.

Broadly, the IC50 is the point on the concentration scale where inhibition reaches its midpoint. Consider `O=C(Nc1cc(Cl)cc(Cl)c1O)c1c(O)c(Cl)cc(Cl)c1Cl` [Oxyclozanide, reference compound], for which, in data set [1] (setting [2]), the IC50 stood at 7.68 µM. For the same molecule, the “inhibition of ACTH at 25 μM, in words (FIG. 4, FIG. 5)” value (“inhibition of ACTH at 25 μM, in words” for short) in the data set with AtT-20 pituitary cells (25 μM, 24-hour treatment) is “significant inhibition”. Further, the activity at 25 µM in the data set on AtT-20 pituitary cells (setting [3]) was determined as 41%. Also, the “AtT-20 cell viability (PrestoBlue assay) % of control (DMSO) at 25 μM Mean (SD)” value with AtT-20 cells is 98.08 (14.38) %.
On to `O=C(Nc1ccccc1)c1ccccc1O` [Salicylanilide, reference compound], for which, in data set [1] (USP8FL inhbition IC50 [μM] (CI: Confidence Interval)), the 50% inhibitory concentration (IC50) was over 40 µM. For the same molecule, in the data set on AtT-20 pituitary cells (25 μM, 24-hour treatment), the “inhibition of ACTH at 25 μM, in words” value is given as “ineffective”. For the same molecule, the activity at 25 µM in the data set with AtT-20 pituitary cells (Mus musculus, AtT20, 24 h, read-out: ACTH secretion % of control (DMSO) at 25 μM, 25 μM, 24-hour treatment, AtT-20 supernatant) came out at 99%. Besides, the “AtT-20 cell viability (PrestoBlue assay) % of control (DMSO) at 25 μM Mean (SD)” value in the data set on AtT-20 cells is on record as 105.4 (14.77) %.
Turning to `O=C(Nc1ccc(O)cc1)c1cc(I)ccc1O` [Z69118571], the half-maximal inhibitory concentration (IC50) in data set [1] (setting [2]) is over 100 µM. Also, in the data set with AtT-20 pituitary cells (25 μM, 24-hour treatment), the “inhibition of ACTH at 25 μM, in words” value is “ineffective”. Moreover, the activity at 25 µM in the data set with AtT-20 pituitary cells (setting [3]) turned out to be 101%. In addition, in the data set with AtT-20 cells, the “AtT-20 cell viability (PrestoBlue assay) % of control (DMSO) at 25 μM Mean (SD)” value is on record as 106.7 (20.87) %.
Regarding `O=C(Nc1ccc(Cl)cc1C(=O)c1ccccc1F)c1ccc(=O)[nH]c1` [Z220328740], the IC50 in data set [1] (setting [2]) was over 40 µM. Besides, the “inhibition of ACTH at 25 μM, in words” value in the data set with AtT-20 pituitary cells (25 μM, 24-hour treatment) was “ineffective”. Further, in the data set on AtT-20 pituitary cells (25 μM, 24-hour treatment, AtT-20 supernatant), the “ACTH secretion % of control (DMSO) at 25 μM” value is given as 82%. In addition, the “AtT-20 cell viability (PrestoBlue assay) % of control (DMSO) at 25 μM Mean (SD)” value in the data set with AtT-20 cells is given as 102.9 (15.16) %.
As for `O=C(CSc1ccccc1F)Nc1cccc(OCc2ccccn2)c1` [Z393438700], the IC50 in data set [1] (setting [2]) was over 40 µM. Also, in the data set on AtT-20 pituitary cells (25 μM, 24-hour treatment), the “inhibition of ACTH at 25 μM, in words” value is listed as “ineffective”. Moreover, the activity at 25 µM in the data set with AtT-20 pituitary cells (setting [3]) turned out to be 92%. The “AtT-20 cell viability (PrestoBlue assay) % of control (DMSO) at 25 μM Mean (SD)” value in the data set with AtT-20 cells was 101.1 (16.04) %.
Usually inhibition stands for how much of the control response was suppressed. Read a low inhibition as a response near the control. For the molecule `O=C(NCc1cccc(OCc2ccccn2)c1)c1csc(Br)c1` [Z424433412], in data set [1] (setting [2]), the IC50 is over 40 µM. In the data set with AtT-20 pituitary cells (25 μM, 24-hour treatment), the “inhibition of ACTH at 25 μM, in words” value is recorded as “ineffective”. For the same molecule, the activity at 25 µM in the data set with AtT-20 pituitary cells (setting [3]) was 80%. The same molecule returned an inhibition at 25 µM in the data set on AtT-20 pituitary cells (Mus musculus, AtT20, 25 μM, 24-hour treatment, p<0.05) of 20%. Also, the “AtT-20 cell viability (PrestoBlue assay) % of control (DMSO) at 25 μM Mean (SD)” value in the data set on AtT-20 cells is recorded as 98.93 (14.69) %.
As to `Cc1ccc(NC(=O)Cn2ccccc2=O)c(OCc2ccccc2)c1` [Z738998144], in data set [1] (setting [2]), the IC50 is over 40 µM. Moreover, the “inhibition of ACTH at 25 μM, in words” value in the data set on AtT-20 pituitary cells (25 μM, 24-hour treatment) is on record as “ineffective”. The activity at 25 µM in the data set on AtT-20 pituitary cells (setting [3]) worked out at 90%. Further, in the data set on AtT-20 cells, the “AtT-20 cell viability (PrestoBlue assay) % of control (DMSO) at 25 μM Mean (SD)” value is reported as 95.98 (15.33) %.
